Experiment [1] deals with T1, IRAK4 (Homo sapiens (Human), UniProt Q9NWZ3). Description: IRAK4 Biochemical HTRF Kinase Assay. Conditions: read-out: IRAK4 HTRF biochemical: IC50. The method in brief:
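HTRF KinEASE STK S1 format measuring IRAK4 phosphorylation of biotinylated peptide; reaction solution of 5 μM STK-S1, 10 mM ATP, 10 mM MgCl2 added (stock, to 10 μl final), 90 min at ambient temperature, detection 60 min. IC50 from sixteen-point duplicate curves by non-linear regression.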
A general note: Time-resolved FRET reads energy transfer from a long-lived donor to a nearby acceptor.
Target sequence in this assay (Q9NWZ3 whole entry, species assumed): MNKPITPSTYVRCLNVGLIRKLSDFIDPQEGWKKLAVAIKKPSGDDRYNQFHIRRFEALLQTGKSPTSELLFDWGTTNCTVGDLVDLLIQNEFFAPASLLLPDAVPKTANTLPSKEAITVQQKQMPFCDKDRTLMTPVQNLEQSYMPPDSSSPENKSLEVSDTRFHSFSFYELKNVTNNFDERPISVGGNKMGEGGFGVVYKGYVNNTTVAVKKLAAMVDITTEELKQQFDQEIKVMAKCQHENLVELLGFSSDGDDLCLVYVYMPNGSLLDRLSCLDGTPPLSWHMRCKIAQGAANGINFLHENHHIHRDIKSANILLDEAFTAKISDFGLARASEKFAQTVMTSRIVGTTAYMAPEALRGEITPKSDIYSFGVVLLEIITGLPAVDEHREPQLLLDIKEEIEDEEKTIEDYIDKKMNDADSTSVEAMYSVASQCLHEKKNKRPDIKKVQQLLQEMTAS

The target in experiment [2] is T1, IRAK4. Description: IRAK4 Degradation HiBiT Assay. The note with it: HiBiT-tagged Jurkat cells, 4 hrs; for Dmax: Jurkat; for DC50: read-out: Cellular IRAK4 HiBiT: DC50.
Target sequence in this assay (Q9NWZ3 whole entry): as the sequence (Q9NWZ3 whole entry, species assumed) above
Setting [3] is: read-out: Cellular IRAK4 HiBiT: Dmax, Table 4.
Setting [4] is: read-out: Cellular IRAK4 HiBiT: Dmax, Table 5, multiple runs.

Structures are written as SMILES. Where two headings read alike, the source gives them in different places. Some results are limits rather than exact numbers.

On to `Cc1ncsc1-c1ccc([C@H](C)NC(=O)[C@@H]2C[C@@H](O)CN2C(=O)[C@@H](NC(=O)CCCCC(=O)N2CCN(c3nnc(-c4cnc(-c5ccc6cc(C#N)cnn56)cc4NC(C)C)s3)CC2)C(C)(C)C)cc1` [Example 39, (2S,4R)-1-((S)-2-(6-(4-(5-(6-(3-cyanopyrrolo[1,2-b]pyridazin-7-yl)-4-(isopropylamino)pyridin-3-yl)-1,3,4-thiadiazol-2-yl)piperazin-1-yl)-6-oxohexanamido)-3,3-dimethylbutanoyl)-4-hydroxy-N—((S)-1-(4-(4-methylthiazol-5-yl)phenyl)ethyl)pyrrolidine-2-carboxamide], for which the IC50 in experiment [1] (Table 4) is 5 nM; in experiment [1] (Table 5, multiple runs), 5 nM. Besides, the Dmax in experiment [2] (setting [3]) and in experiment [2] (setting [4]) was 97% each time. Moreover, the DC50 in experiment [2] (Table 4) came to 357 nM; in experiment [2] (Table 5, multiple runs), 357 nM.
Regarding `CC(C)Nc1cc(-c2ccc3cc(C#N)cnn23)ncc1-c1nnc(N2CCN(C(=O)C3CCN(C(=O)CNc4cccc5c4C(=O)N(C4CCC(=O)NC4=O)C5=O)CC3)CC2)s1` (centres unmarked) [Example 73, 7-(5-(5-(4-(1-((2-(2,6-dioxopiperidin-3-yl)-1,3-dioxoisoindolin-4-yl)glycyl)piperidine-4-carbonyl)piperazin-1-yl)-1,3,4-thiadiazol-2-yl)-4-(isopropylamino)pyridin-2-yl)pyrrolo[1,2-b]pyridazine-3-carbonitrile], the IC50 in experiment [1] (Table 5, multiple runs) worked out at 1.9 nM. In addition, the Dmax in experiment [2] (setting [4]) worked out at 69%. For the same compound, the DC50 in experiment [2] (Table 5, multiple runs) worked out at 25.2 nM.
In the case of `CNc1cc(-c2ccc3cc(C#N)cnn23)ncc1-c1nnc([C@H]2CC[C@H](NC(=O)CN3CCC4(CC3)CN(c3ccc5c(c3)C(=O)N(C3CCC(=O)NC3=O)C5=O)C4)CC2)s1` (some centres unmarked) [Example 64, N-((1r,4r)-4-(5-(6-(3-cyanopyrrolo[1,2-b]pyridazin-7-yl)-4-(methylamino)pyridin-3-yl)-1,3,4-thiadiazol-2-yl)cyclohexyl)-2-(2-(2-(2,6-dioxopiperidin-3-yl)-1,3-dioxoisoindolin-5-yl)-2,7-diazaspiro[3.5]nonan-7-yl)acetamide], the IC50 was found to be 0.89 nM in experiment [1] (Table 4) and 0.8 nM in experiment [1] (Table 5, multiple runs). In addition, the figures for the Dmax in experiment [2] (setting [3]) and in experiment [2] (setting [4]) were 110% and 112%, respectively. Further, the DC50 in experiment [2] (Table 4) worked out at 17.3 nM; in experiment [2] (Table 5, multiple runs) it was 14.9 nM.
Consider `CNc1cc(-c2ccc3cc(C#N)cnn23)ncc1-c1nnc(C23CCC(NC(=O)[C@H]4C[C@H]4C(=O)N[C@H](C(=O)N4C[C@H](O)C[C@H]4C(=O)N[C@@H](C)c4ccc(-c5scnc5C)cc4)C(C)(C)C)(CC2)CC3)s1` (mixture of isomers) [Example 142, (1RS,2SR)—N1-(4-(5-(6-(3-cyanopyrrolo[1,2-b]pyridazin-7-yl)-4-(methylamino)pyridin-3-yl)-1,3,4-thiadiazol-2-yl)bicyclo[2.2.2]octan-1-yl)-N2—((S)-1-((2S,4R)-4-hydroxy-2-(((S)-1-(4-(4-methylthiazol-5-yl)phenyl)ethyl)carbamoyl)pyrrolidin-1-yl)-3,3-dimethyl-1-oxobutan-2-yl)cyclopropane-1,2-dicarboxamide], for which the IC50 in experiment [1] (Table 5, multiple runs) was determined as 1.9 nM. Besides, the Dmax in experiment [2] (setting [4]) was 115%. The DC50 in experiment [2] (Table 5, multiple runs) turned out to be 258 nM.
The matching figures for `CNc1cc(-c2ccc3cc(C#N)cnn23)ncc1-c1nnc(N2CCC(NC(=O)COc3cc(-c4scnc4C)ccc3CNC(=O)[C@@H]3C[C@@H](O)CN3C(=O)[C@@H](NC(=O)C3(F)CC3)C(C)(C)C)CC2)s1` [Example 97, (2S,4R)—N-(2-(2-((1-(5-(6-(3-cyanopyrrolo[1,2-b]pyridazin-7-yl)-4-(methylamino)pyridin-3-yl)-1,3,4-thiadiazol-2-yl)piperidin-4-yl)amino)-2-oxoethoxy)-4-(4-methylthiazol-5-yl)benzyl)-1-((S)-2-(1-fluorocyclopropane-1-carboxamido)-3,3-dimethylbutanoyl)-4-hydroxypyrrolidine-2-carboxamide]: 4.8 nM, 59% and 265 nM.
For `CN[C@@H](C)C(=O)N[C@H](C(=O)N1CCC[C@H]1c1nc(C(=O)c2cccc(OCCOCCOCCOCCC(=O)N3CCN(c4nnc(-c5cnc(-c6ccc7cc(C#N)cnn67)cc5NC(C)C)s4)CC3)c2)cs1)C1CCCCC1` [Example 55, (S)—N—((S)-2-((S)-2-(4-(3-(2-(2-(2-(3-(4-(5-(6-(3-cyanopyrrolo[1,2-b]pyridazin-7-yl)-4-(isopropylamino)pyridin-3-yl)-1,3,4-thiadiazol-2-yl)piperazin-1-yl)-3-oxopropoxy)ethoxy)ethoxy)ethoxy)benzoyl)thiazol-2-yl)pyrrolidin-1-yl)-1-cyclohexyl-2-oxoethyl)-2-(methylamino)propanamide], the IC50 in experiment [1] (Table 4) was 6.6 nM; in experiment [1] (Table 5, multiple runs), 6.6 nM. Also, the Dmax in experiment [2] (setting [3]) and in experiment [2] (setting [4]) was 45% each time. Also, the DC50 turned out to be 934 nM in experiment [2] (Table 4) and 937 nM in experiment [2] (Table 5, multiple runs).
Take `CNc1cc(-c2ccc3cc(C#N)cnn23)ncc1-c1nnc(N2CCN(C(=O)C[C@@H]3CCCN(c4cccc5c4C(=O)N(C4CCC(=O)NC4=O)C5=O)C3)CC2)s1` (stereo partly drawn) [Example 88, 7-(5-(5-(4-(2-((3S)-1-(2-(2,6-dioxopiperidin-3-yl)-1,3-dioxoisoindolin-4-yl)piperidin-3-yl)acetyl)piperazin-1-yl)-1,3,4-thiadiazol-2-yl)-4-(methylamino)pyridin-2-yl)pyrrolo[1,2-b]pyridazine-3-carbonitrile]: in experiment [1] (Table 5, multiple runs), the IC50 stood at 1.4 nM. Besides, in experiment [2] (Table 5, multiple runs), the DC50 is more than 3330 nM.
As for `CC(C)Nc1cc(-c2ccc3cc(C#N)cnn23)ncc1-c1nnc(N2CCN(C(=O)CCOCCNc3cccc4c3C(=O)N(C3CCC(=O)NC3=O)C4=O)CC2)s1` (centres unmarked) [Example 7, 7-(5-(5-(4-(3-(2-((2-(2,6-dioxopiperidin-3-yl)-1,3-dioxoisoindolin-4-yl)amino)ethoxy)propanoyl)piperazin-1-yl)-1,3,4-thiadiazol-2-yl)-4-(isopropylamino)pyridin-2-yl)pyrrolo[1,2-b]pyridazine-3-carbonitrile], the IC50 came out at 9.2 nM in experiment [1] (Table 4) and 9.2 nM in experiment [1] (Table 5, multiple runs). For the same compound, the Dmax in experiment [2] (setting [3]) and in experiment [2] (setting [4]) was 39% throughout. Moreover, the DC50 came out at 228 nM in experiment [2] (Table 4) and 229 nM in experiment [2] (Table 5, multiple runs).
Turning to `CNc1cc(-c2ccc3cc(C#N)cnn23)ncc1-c1nnc(N2CCN(CC3CCN(c4ccc(C(=O)NC5CCC(=O)NC5=O)nc4)CC3)CC2)s1` (centres unmarked) [Example 161, 5-(4-((4-(5-(6-(3-cyanopyrrolo[1,2-b]pyridazin-7-yl)-4-(methylamino)pyridin-3-yl)-1,3,4-thiadiazol-2-yl)piperazin-1-yl)methyl)piperidin-1-yl)-N-(2,6-dioxopiperidin-3-yl)picolinamide], the IC50 in experiment [1] (Table 5, multiple runs) worked out at 1.4 nM. The Dmax in experiment [2] (setting [4]) worked out at 56%. In addition, the DC50 in experiment [2] (Table 5, multiple runs) is 24.6 nM.
As to `Cc1ncsc1-c1ccc(CNC(=O)[C@@H]2C[C@@H](O)CN2C(=O)[C@@H](NC(=O)C2(F)CC2)C(C)(C)C)c(OCCOCCOCCOCCC(=O)N2CCN(c3nnc(-c4cnc(-c5ccc6cc(C#N)cnn56)cc4NC(C)C)s3)CC2)c1` [Example 49, (2S,4R)—N-(2-(2-(2-(2-(3-(4-(5-(6-(3-cyanopyrrolo[1,2-b]pyridazin-7-yl)-4-(isopropylamino)pyridin-3-yl)-1,3,4-thiadiazol-2-yl)piperazin-1-yl)-3-oxopropoxy)ethoxy)ethoxy)ethoxy)-4-(4-methylthiazol-5-yl)benzyl)-1-((S)-2-(1-fluorocyclopropane-1-carboxamido)-3,3-dimethylbutanoyl)-4-hydroxypyrrolidine-2-carboxamide], the IC50 in experiment [1] (Table 4) worked out at 4.6 nM; in experiment [1] (Table 5, multiple runs), 4.6 nM. The Dmax in experiment [2] (setting [3]) and in experiment [2] (setting [4]) was 111% each time. Moreover, the DC50 in experiment [2] (Table 4) is 231 nM; in experiment [2] (Table 5, multiple runs), 231 nM.
Turning to `CNc1cc(-c2ccc3cc(C#N)cnn23)ncc1-c1nnc(N2CC3(CCN(C(=O)CN4CCN(c5ccc6c(c5)C(=O)N(C5CCC(=O)NC5=O)C6=O)CC4)CC3)C2)s1` (centres unmarked) [Example 177, 7-(5-(5-(7-(2-(4-(2-(2,6-dioxopiperidin-3-yl)-1,3-dioxoisoindolin-5-yl)piperazin-1-yl)acetyl)-2,7-diazaspiro[3.5]nonan-2-yl)-1,3,4-thiadiazol-2-yl)-4-(methylamino)pyridin-2-yl)pyrrolo[1,2-b]pyridazine-3-carbonitrile], the IC50 in experiment [1] (Table 5, multiple runs) turned out to be 0.5 nM. The Dmax in experiment [2] (setting [4]) was 105%. In addition, in experiment [2] (Table 5, multiple runs), the DC50 worked out at 14.8 nM.
The matching figures for `CNc1cc(-c2ccc3cc(C#N)cnn23)ncc1-c1nnc(C23CCC(NC(=O)[C@H]4C[C@@H](OCCNc5cccc6c5C(=O)N(C5CCC(=O)NC5=O)C6=O)C4)(CC2)CC3)s1` (some centres unmarked) [Example 109, (1s,3s)-N-(4-(5-(6-(3-cyanopyrrolo[1,2-b]pyridazin-7-yl)-4-(methylamino)pyridin-3-yl)-1,3,4-thiadiazol-2-yl)bicyclo[2.2.2]octan-1-yl)-3-(2-((2-(2,6-dioxopiperidin-3-yl)-1,3-dioxoisoindolin-4-yl)amino)ethoxy)cyclobutane-1-carboxamide]: 1.4 nM, 64% and 21.6 nM.

The term IC50 denotes the concentration needed to halve the response being measured. Broadly, the Dmax is the greatest extent of degradation seen. As usually defined, the DC50 is the concentration at which degradation of the target reaches its halfway point.

These data come from US12528814B2, “Bifunctional degraders of interleukin-1 receptor-associated kinases and therapeutic use thereof” (NURIX THERAPEUTICS, INC., priority 2020, dated 2026).
